Test results from patent publication US10662218B2, “Analogs of celastrol” (ERX Pharmaceuticals, Inc., priority 2015, dated 2020).
≈ marks a conversion by molar mass, not a printed value. Where “and” joins values, the source holds several entries; their conditions need not be identical. Equal entries are not always repeated. Entries after “also recorded” stand apart in the source; their conditions may differ. Where two headings read alike, the source gives them in different places.

Experiments:
[1] = system: C57BL/6 Diet Induced Obese (DIO) mice; experiment: Oral (P.O.) administration study in DIO mice: food consumption; type: in vivo, mouse; settings: 2 mg/kg oral gavage once daily for 10 days, compared with controls
Experimental: (§1) Dose formulations were administered by oral gavage once daily for 10 days at a dose volume of 2 mL/kg. Doses were based on the most recently recorded scheduled body weight.
A quantitative assessment of food consumption was recorded daily on Days 11 through 14 of the predose phase and daily prior to dosing during the dosing phase.
(§2) Descriptive statistics (n, mean, standard error of the mean, standard deviation) were completed. Additionally, one-way analysis of variance followed by Dunnett's post-hoc test were performed on body weight (cumulative body weight change), glucose (glucose percent change), and food consumption (cumulative food consumption). Area under the curve (for body weight, cumulative body weight change, daily body weight change, and food consumption) was computed for treatment groups. An appropriate comparison test, such as one-way analysis of variance and Dunnett's, was performed on the group means for the area under the curve computations. Any additional statistical analysis and interpretation of the results were the responsibility of the sponsor.

[2] = Compound solubility in PBS (pH 7.4), LC-MS/MS; settings: PBS (pH 7.4), pH 7.4, aqueous buffer, kinetic from dmso stock
Experimental: • Test concentration: 100 μM (1% of DMSO) • Test systems: PBS (pH 7.4) • Incubation condition: shaken (1000 rpm) for 1 h at room temperature • Sample size: Duplicates (n=2) • Bioanalytical method: LC-MS/MS

[3] = system: C57BL/6 Diet Induced Obese (DIO) mice; experiment: Oral (P.O.) administration study in DIO mice: blood glucose level after 6 hours of fasting; type: in vivo, mouse; settings: 2 mg/kg oral gavage once daily for 10 days, compared with controls
Experimental: as §1
Blood for blood glucose was collected from all animals via tail clip on Day 14 of the predose phase, and Day 11 of the dosing phase after 6 hours of fasting. A drop of blood from each animal was placed onto two different Accu-Chek® Aviva glucometers to assess glucose values. A third value was taken, if necessary.
as §2

[4] = system: C57BL/6 Diet Induced Obese (DIO) mice; experiment: Oral (P.O.) administration study in DIO mice: animal fate (mortality) and clinical observations; settings: individual male DIO mouse, 2 mg/kg; phase of fate Dosing, phase week 2, phase day 11
Procedure, shortened: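 Male C57BL/6 DIO mice received 2 mg/kg of each compound by oral gavage once daily for 10 days; vehicle was 1% methyl cellulose in citric acid/phosphate buffer. Mortality and clinical signs recorded alongside body weight, food intake and blood glucose; animals sacrificed Day 11.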

[5] = system: C57BL/6 Diet Induced Obese (DIO) mice; experiment: Oral (P.O.) administration study in DIO mice: in vivo activity, body weights; set-up: species or system mouse; settings: for area under the curve (AUC) for cumulative body weight change / area under the curve (AUC) for daily body weight change / cumulative body weight change: 2 mg/kg oral gavage once daily for 10 days, compared with controls; for Individual Body Weight: individual male animals; for Body weight, Mean / change in vivo at 2 mg/kg: male; for change in vivo at 2 mg/kg: Mus musculus, po, read-out: Body weight, %-Diff; for Individual Body Weight, DSNG 1: dosing phase day 1; for Individual Body Weight, DSNG 2: dosing phase day 2; for Individual Body Weight, PRED 11: pre-dose phase day 11 (baseline); for Individual Body Weight, PRED 12: pre-dose phase day 12 (baseline); for Individual Body Weight, PRED 13: pre-dose phase day 13 (baseline); for Individual Body Weight, PRED 14: pre-dose phase day 14 (baseline)
Procedure, shortened: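 Male C57BL/6 DIO mice (21-22 weeks, 29.8-40.1 g) were gavage-acclimated with vehicle, then dosed orally once daily for 10 days at 2 mL/kg. Body weight was recorded daily before dosing. Cumulative change and AUC were analysed by one-way ANOVA with Dunnett's test.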

[6] = system: C57BL/6 Diet Induced Obese (DIO) mice; settings: I.P. administration, dose 100 μg/kg
Experimental: The following test compounds were studied to determine any anti-obesity effect when administered to rodents. First, test compounds were formulated in 50, 100, 200, 400, 500, 1000 and 2000 μg/kg doses and administered once daily in a dose volume of 2 mL/kg i.p. for multiple days. Test compounds were compared to administration of vehicle to mice. The experiment consisted of two phases: a pre-dosing phase and a dosing phase. Weight of the animals in each testing group was measured daily. Fluid samples were taken as well.
Descriptive statistics (n, mean, standard error of the mean, standard deviation) were completed. Additionally, one way analysis of variance followed by Dunnett's post-hoc test was performed on body weight (cumulative body weight change), glucose (glucose percent change), and food consumption (cumulative food consumption). Area under the curve (for body weight, cumulative body weight change, daily body weight change, and food consumption) was computed for treatment groups. An appropriate comparison test, such as one-way analysis of variance and Dunnett's, was performed on the group means for the area under the curve computations.

[7] = in vivo
[8] = individual male DIO mouse, 2 mg/kg, 2 mg/kg
[9] = individual male DIO mouse, group dosed 2 mg/kg, 2 mg/kg
[10] = individual male DIO mouse of the 2 mg/kg group

SMILES: CC(=O)N[C@]1(C)CC[C@]2(C)CC[C@]3(C)C4=CC=C5C(=CC(=O)C(O)=C5C)[C@]4(C)CC[C@@]3(C)[C@@H]2C1 [ERX1168]
- area under the curve (AUC) for cumulative food intake [1]: statistically significant decreases
- cumulative food intake [1]: statistically significant decreases
- solubility at 1 h ([2]; Solubility (μM) Mean, Table 6-C, test concentration 100 μM (1% of DMSO), shaken (1000 rpm) 1 h at room temperature, n = 2): 5.05 µM (≈ 2.34 µg/mL)
- glucose value percent change [3]: Statistically significant changes; also recorded: statistically significant decreases
- Individual Animal Fate: Fate Status [4]: Scheduled Sacrifice
- area under the curve (AUC) for cumulative body weight change [5]: statistically significant decreases
- area under the curve (AUC) for daily body weight change [5]: statistically significant decreases
- cumulative body weight change [5]: statistically significant decreases
- Individual Body Weight ([5]; 2 mg/kg, Phase Day DSNG 3): 30.7 g and 37.3 g and 34.4 g and 30.5 g and 28.3 g
- Individual Body Weight ([5]; 2 mg/kg, Phase Day DSNG 4): 30.0 g and 37.5 g and 34.2 g and 29.1 g and 28.9 g
- Individual Body Weight ([5]; 2 mg/kg, Phase Day DSNG 5): 29.2 g and 36.1 g and 33.2 g and 28.8 g and 28.0 g
- Individual Body Weight ([5]; 2 mg/kg, Phase Day DSNG 6): 28.4 g and 33.9 g and 31.6 g and 27.0 g and 26.7 g
- Individual Body Weight ([5]; 2 mg/kg, Phase Day DSNG 7): 28.9 g and 32.3 g and 30.7 g and 27.0 g and 27.3 g
- Individual Body Weight ([5]; 2 mg/kg, Phase Day DSNG 8): 28.7 g and 32.7 g and 29.5 g and 27.7 g and 26.9 g
- Body weight, Mean ([5]; DIO mice, 2 mg/kg, phase DSNG, Day 7): 29.2 g
- Body weight, Mean ([5]; DIO mice, 2 mg/kg, phase DSNG, Day 8): 29.1 g
- Body weight, Mean ([5]; DIO mice, 2 mg/kg, phase DSNG, Day 9): 30.0 g
- Body weight, Mean ([5]; DIO mice, 2 mg/kg, phase DSNG, Day 10): 29.2 g
- Body weight, Mean ([5]; DIO mice, 2 mg/kg, phase DSNG, Day 11): 29.2 g
- Body weight, Mean ([5]; Day 1, DSNG phase, 2 mg/kg, N=5): 34.5 g
- Body weight, Mean ([5]; Day 2, DSNG phase, 2 mg/kg, N=5): 34.0 g
- Body weight, Mean ([5]; Day 3, DSNG phase, 2 mg/kg, N=5): 32.2 g
- Body weight, Mean ([5]; Day 4, DSNG phase, 2 mg/kg, N=5): 31.9 g
- Body weight, Mean ([5]; Day 5, DSNG phase, 2 mg/kg, N=5): 31.1 g
- Body weight, Mean ([5]; Day 6, DSNG phase, 2 mg/kg, N=5): 29.5 g
- change in vivo at 2 mg/kg ([5]; 24 h, Day 1, DSNG phase, 2 mg/kg, difference of group mean): 1%
- change in vivo at 2 mg/kg ([5]; 48 h, Day 2, DSNG phase, 2 mg/kg, difference of group mean): -1%
- change in vivo at 2 mg/kg ([5]; 72 h, Day 3, DSNG phase, 2 mg/kg, difference of group mean): -5%
- change in vivo at 2 mg/kg ([5]; 96 h, Day 4, DSNG phase, 2 mg/kg, difference of group mean): -4%
- change in vivo at 2 mg/kg ([5]; 120 h, Day 5, DSNG phase, 2 mg/kg, difference of group mean): -8%
- change in vivo at 2 mg/kg ([5]; 144 h, Day 6, DSNG phase, 2 mg/kg, difference of group mean): -12%
- change in vivo at 2 mg/kg ([5]; 168 h, DIO mice, 2 mg/kg, phase DSNG, Day 7, difference of group mean from vehicle group 1): -13%
- change in vivo at 2 mg/kg ([5]; 192 h, DIO mice, 2 mg/kg, phase DSNG, Day 8, difference of group mean from vehicle group 1): -14%
- change in vivo at 2 mg/kg ([5]; 216 h, DIO mice, 2 mg/kg, phase DSNG, Day 9, difference of group mean from vehicle group 1): -10%
- change in vivo at 2 mg/kg ([5]; 240 h, DIO mice, 2 mg/kg, phase DSNG, Day 10, difference of group mean from vehicle group 1): -13%
- change in vivo at 2 mg/kg ([5]; 264 h, DIO mice, 2 mg/kg, phase DSNG, Day 11, difference of group mean from vehicle group 1): -14%
- Individual Body Weight, DSNG 1 [5, 8]: 33.1 g and 39.5 g and 36.9 g and 31.9 g and 31.1 g
- Individual Body Weight, DSNG 2 [5, 8]: 32.5 g and 40.4 g and 36.2 g and 31.2 g and 29.9 g
- Individual Body Weight, PRED 11 [5, 9]: 35.6 g and 39.3 g and 37.3 g and 35.3 g and 33.0 g
- Individual Body Weight, PRED 12 [5, 9]: 35.2 g and 40.3 g and 37.2 g and 33.1 g and 31.0 g
- Individual Body Weight, PRED 13 [5, 9]: 35.0 g and 40.4 g and 37.2 g and 32.5 g and 30.6 g
- Individual Body Weight, PRED 14 [5, 9]: 35.1 g and 41.2 g and 37.5 g and 33.3 g and 32.1 g

SMILES: CC1=C(O)C(=O)C=C2C1=CC=C1[C@@]2(C)CC[C@@]2(C)[C@@H]3C[C@](C)(C#N)CC[C@]3(C)CC[C@]12C [ERX1015]
- solubility at 1 h ([2]; Solubility (μM) Mean, Table 6-B, test concentration 100 μM (1% of DMSO), shaken (1000 rpm) 1 h at room temperature, n = 2): 0.79 µM (≈ 0.341 µg/mL)
- solubility at 1 h ([2]; Solubility (μM), Table 6-D): 0.791 µM (≈ 0.342 µg/mL)
- activity [6]: ++

SMILES: Cc1c(O)c(O)cc2c1C(=O)C=C1[C@@]2(C)CC[C@@]2(C)[C@@H]3C[C@](C)(C(=O)O)CC[C@]3(C)CC[C@]12C [ERX1030]
- Oral bioavailability [7]: −

SMILES: CC1=C(O)C(=O)C=C2C1=CC=C1[C@@]2(C)CC[C@@]2(C)[C@@H]3C[C@](C)(C(=O)O)CC[C@]3(C)CC[C@]12C [ERX1000-4, Celastrol]
- cumulative food intake [1]: statistically significant decreases
- glucose value percent change [3]: Statistically significant changes; also recorded: statistically significant decreases
- area under the curve (AUC) for cumulative body weight change [5]: statistically significant decreases
- area under the curve (AUC) for daily body weight change [5]: statistically significant decreases
- cumulative body weight change [5]: statistically significant decreases
- Individual Body Weight, PRED 11 [5, 10]: 35.9 g and 35.1 g and 37.3 g and 34.5 g and 37.5 g
- Individual Body Weight, PRED 12 [5, 10]: 35.2 g and 33.5 g and 37.4 g and 35.5 g and 37.3 g
- Individual Body Weight, PRED 13 [5, 10]: 35.1 g and 32.5 g and 37.7 g and 34.0 g and 36.0 g
- Individual Body Weight, PRED 14 [5, 10]: 35.5 g and 32.9 g and 37.9 g and 34.6 g and 37.2 g
- Individual Body Weight, DSNG 1 [5, 8]: 34.6 g and 30.8 g and 37.0 g and 33.5 g and 34.9 g
- Individual Body Weight, DSNG 2 [5, 8]: 34.4 g and 30.8 g and 36.4 g and 33.5 g and 35.0 g
